Experimental data: patent US20230141600A1, “IMIDAZOPYRAZINE DERIVATIVES” (priority 2020, published 2023)
Counter-ions that a name gives are not always drawn. Like-named read-outs stand apart in the source and are kept apart here.

Tested on: Acinetobacter baumannii ATCC17961
Assay: 90% growth inhibitory concentration (IC90) determination, antimicrobial susceptibility testing
Assay type: cell-based
Conditions: 90% growth inhibition, Iso-Sensitest broth, OD 600 nm over 16 h, 35±2° C., read-out: ATCC 17961 IC90
Procedure: Antimicrobial Susceptibility Testing:
90% Growth Inhibitory Concentration (IC90) Determination
The in vitro antimicrobial activity of the compounds was determined according to the following procedure:
The assay used a 10-points Iso-Sensitest broth medium to measure quantitatively the in vitro activity of the compounds against Acinetobacter baumannii ATCC17961 and ATCC17978.
Stock compounds in DMSO were serially twofold diluted (e.g. range from 50 to 0.097 μM final concentration) in 384 wells microtiter plates and inoculated with 49 μl the bacterial suspension in Iso-Sensitest medium to have a final cell concentration of ˜5×10^(5) CFU/ml in a final volume/well of 50 ul/well. Microtiter plates were incubated at 35±2° C.
Bacterial cell growth was determined with the measurement of optical density at λ=600 nm each minutes over a time course of 16 h. Growth inhibition was calculated during the logarithmic growth of the bacterial cells with determination of the concentration inhibiting 50% (IC50) and 90% (IC90) of the growth.
Table 2 provides the 90% growth inhibitory concentrations (IC90) in micromoles per liter of the compounds of present invention obtained against the strain Acinetobacter baumannii ATCC17961.

[1] = Acinetobacter baumannii, ATCC17961, 16 h

SMILES | IC90 [1] | IC90
CCc1cc(Nc2nccn3c(-c4ccc(OC(F)F)c(F)c4F)cnc23)ccc1C(=O)NCCC1CC[N+](C)(CC2CNC2)CC1 (stereo not shown) [Example 10, N-[2-[1-(azetidin-3-ylmethyl)-1-methyl-piperidin-1-ium-4-yl]ethyl]-4-[[3-[4-(difluoromethoxy)-2,3-difluoro-phenyl]imidazo[1,2-a]pyrazin-8-yl]amino]-2-ethyl-benzamide Diformate] | 157 nM | 
C[N+](C)(C)CC(=O)NCCNC(=O)c1ccc(Nc2nccn3c(-c4c[nH]nc4C(F)(F)F)cnc23)cc1Cl [Example 58, [2-[2-[[2-Chloro-4-[[3-[3-(trifluoromethyl)-1H-pyrazol-4-yl]imidazo[1,2-a]pyrazin-8-yl]amino]benzoyl]amino]ethylamino]-2-oxo-ethyl]-trimethyl-ammonium formate] | 1580 nM | 
CCc1cc(Nc2nccn3c(-c4cn(CC#N)nc4C(F)(F)F)cnc23)ccc1C(=O)NCCOCC[N+]1(CC#N)CCOCC1 [Example 78, 4-(Cyanomethyl)-4-(2-(2-(4-((3-(1-(cyanomethyl)-3-(trifluoromethyl)-1H-pyrazol-4-yl)imidazo[1,2-a]pyrazin-8-yl)amino)-2-ethylbenzamido)ethoxy)ethyl)morpholin-4-ium Formate] | 467 nM | 
C[N+](C)(C)CC(=O)N1CCN(C(=O)c2ccc(Nc3nccn4c(-c5c[nH]nc5C(F)(F)F)cnc34)cc2Cl)CC1 [Example 62, [2-[4-[2-Chloro-4-[[3-[3-(trifluoromethyl)-1H-pyrazol-4-yl]imidazo[1,2-a]pyrazin-8-yl]amino]benzoyl]piperazin-1-yl]-2-oxo-ethyl]-trimethyl-ammonium Formate] | 449 nM | 
COc1ccc(-c2cnc3c(Nc4ccc(C(=O)N[C@@H]5CCN(C(=O)C[N+](C)(C)C)C5)c(C)c4)nccn23)c(F)c1F [Example 70, (R)-2-(3-(4-((3-(2,3-difluoro-4-methoxyphenyl)imidazo[1,2-a]pyrazin-8-yl)amino)-2-methylbenzamido)pyrrolidin-1-yl)-N,N,N-trimethyl-2-oxoethan-1-aminium Chloride] | 44.5 nM | 
C[N+](C)(C)CC(=O)NCCCNC(=O)c1ccc(Nc2nccn3c(-c4c[nH]nc4C(F)(F)F)cnc23)cc1Cl [Example 7, [2-[3-[[2-Chloro-4-[[3-[3-(trifluoromethyl)-1H-pyrazol-4-yl]imidazo[1,2-a]pyrazin-8-yl]amino]benzoyl]amino]propylamino]-2-oxo-ethyl]-trimethyl-ammonium Formate] | 1160 nM | 
CCc1cc(Nc2nccn3c(-c4ccc(OC(F)F)c(F)c4F)cnc23)ccc1C(=O)N1CCN(C(=O)C2CC[N+](C)(CC(N)=O)CC2)CC1 (stereo not shown) [Example 9, 1-(2-amino-2-oxoethyl)-4-(4-(4-((3-(4-(difluoromethoxy)-2,3-difluorophenyl)imidazo[1,2-a]pyrazin-8-yl)amino)-2-ethylbenzoyl)piperazine-1-carbonyl)-1-methylpiperidin-1-ium Formate] | 63.5 nM | 
CCc1cc(Nc2nccn3c(-c4cn(CC#N)nc4C(F)(F)F)cnc23)ccc1C(=O)NCCOCC[N+]1(CC#N)CCCC1 [Example 4, 1-(Cyanomethyl)-1-(2-(2-(4-((3-(1-(cyanomethyl)-3-(trifluoromethyl)-1H-pyrazol-4-yl)imidazo[1,2-a]pyrazin-8-yl)amino)-2-ethylbenzamido)ethoxy)ethyl)pyrrolidin-1-ium Formate] | 267 nM | 

Second part, the molecule after the results:

IC90 [1] | IC90 | SMILES
1780 nM |  | CCc1cc(Nc2nccn3c(-c4ccc(Oc5ccccc5)c(F)c4F)cnc23)ccc1C(=O)NCC1CC[N+](C)(CC2CCNC2)CC1 (stereo not shown) [Example 145, 4-[[3-(2,3-Difluoro-4-phenoxy-phenyl)imidazo[1,2-a]pyrazin-8-yl]amino]-2-ethyl-N-[[1-methyl-1-(pyrrolidin-3-ylmethyl)piperidin-1-ium-4-yl]methyl]benzamide Formate]
4820 nM |  | CCc1cc(Nc2nccn3c(-c4ccc(OC)c(F)c4F)cnc23)ccc1C(=O)NCCC[N+](C)(CC1CNC1)CC1CNC1 [Example 139, Bis(azetidin-3-ylmethyl)-[3-[[4-[[3-(2,3-difluoro-4-methoxy-phenyl)imidazo[1,2-a]pyrazin-8-yl]amino]-2-ethyl-benzoyl]amino]propyl]-methyl-ammonium bis(2,2,2-trifluoroacetate)]
485 nM |  | CCc1cc(Nc2nccn3c(-c4ccc(OC(F)F)c(F)c4F)cnc23)ccc1C(=O)NCC1CC[N+](C)(CC2CNC2)C1 (stereo not shown) [Example 88, N-[[1-(azetidin-3-ylmethyl)-1-methyl-pyrrolidin-1-ium-3-yl]methyl]-4-[[3-[4-(difluoromethoxy)-2,3-difluoro-phenyl]imidazo[1,2-a]pyrazin-8-yl]amino]-2-ethyl-benzamide bis(2,2,2-trifluoroacetate)]
205 nM |  | CCc1cc(Nc2nccn3c(-c4ccc(OC(F)F)c(F)c4F)cnc23)ccc1C(=O)N1CCC(C(=O)N2CC[N+](C)(CC3CCNC3)CC2)CC1 (stereo not shown) [Example 97, [4-[[3-[4-(Difluoromethoxy)-2,3-difluoro-phenyl]imidazo[1,2-a]pyrazin-8-yl]amino]-2-ethyl-phenyl]-[4-[4-methyl-4-(pyrrolidin-3-ylmethyl)piperazin-4-ium-1-carbonyl]-1-piperidyl]methanone 2,2,2-trifluoroacetate]
258 nM |  | CCc1cc(Nc2nccn3c(-c4ccc(OC)c(F)c4F)cnc23)ccc1C(=O)NCC1CC(NC(=O)C2CC[N+](C)(CC3CNC3)CC2)C1 (stereo not shown) [Example 127, 1-(Azetidin-3-ylmethyl)-N-[3-[[[4-[[3-(2,3-difluoro-4-methoxy-phenyl)imidazo[1,2-a]pyrazin-8-yl]amino]-2-ethyl-benzoyl]amino]methyl]cyclobutyl]-1-methyl-piperidin-1-ium-4-carboxamide formate 2,2,2-trifluoroacetate (Mixed Salt)]
457 nM |  | CCc1cc(Nc2nccn3c(-c4ccc(OC(F)F)c(F)c4F)cnc23)ccc1C(=O)N1CCN(C(=O)C2CC[N+](C)(CC3CNC3)CC2)C(C(=O)OC)C1 (stereo not shown) [Example 94, methyl 1-[1-(azetidin-3-ylmethyl)-1-methyl-piperidin-1-ium-4-carbonyl]-4-[4-[[3-[4-(difluoromethoxy)-2,3-difluoro-phenyl]imidazo[1,2-a]pyrazin-8-yl]amino]-2-ethyl-benzoyl]piperazine-2-carboxylate tris(2,2,2-trifluoroacetate)]
609 nM |  | CCc1cc(Nc2nccn3c(-c4ccc(OC)c(F)c4F)cnc23)ccc1C(=O)NCC1CC[N+](CC)(CC2CNC2)CC1 (stereo not shown) [Example 143, N-[[1-(Azetidin-3-ylmethyl)-1-ethyl-piperidin-1-ium-4-yl]methyl]-4-[[3-(2,3-difluoro-4-methoxy-phenyl)imidazo[1,2-a]pyrazin-8-yl]amino]-2-ethyl-benzamide Formate]
 | 5000 nM | CCc1cc(Nc2nccn3c(-c4ccc(OC)c(F)c4F)cnc23)ccc1C(=O)NCC[C@H](NC(=O)C1CC[N+](C)(CC2CNC2)CC1)C(=O)OC (mixture of isomers) [Example 123, Methyl (2S)-2-[[1-(azetidin-3-ylmethyl)-1-methyl-piperidin-1-ium-4-carbonyl]amino]-4-[[4-[[3-(2,3-difluoro-4-methoxy-phenyl)imidazo[1,2-a]pyrazin-8-yl]amino]-2-ethyl-benzoyl]amino]butanoate formate 2,2,2-trifluoroacetate (Mixed Salt)]
